Experimental findings from ChEMBL document CHEMBL1121855, “Potential salicylamide antiplaque agents: in vitro antibacterial activity against Actinomyces viscosus” (J Med Chem, 1981) are described below.

The structures appear in SMILES notation. In brackets after ≈: the same amount, converted by molar mass.

Data set [1] relates to Actinomyces viscosus. Nature of the data set: In vitro antibacterial activity against Actinomyces viscosus M-100-2000. The data set is classed as functional.
The nature of data set [2]: Observed inhibitory activity against various Actinomycetes strains. To be noted: actinomycetaceae.
Data set [3] is described as follows: Partition coefficient is determined in octanol/buffer solution. The data set is classed as physicochemical.
Data set [4] is described as follows: Dissociation constant is the negative logarithm of the equilibrium coefficient of the neutral and charged forms of the compound. The data set is classed as physicochemical.
Data set [5] can be described thus: Distribution coefficient between octanol and aqueous phase at pH7.2. The following applies: pH 7.2. The format is physicochemical.
Data set [6] relates to Actinomyces naeslundii. The experiment in a line: In vitro antibacterial activity against Actinomycetes naeslundii 12104. The data set is classed as functional.
The test system of data set [7] is Actinomyces israelii. The experiment in a line: In vitro antibacterial activity against Actinomycetes israelii 28360. The format is functional.
The subject of data set [8] is Actinomyces naeslundii. The experiment in a line: In vitro antibacterial activity against Actinomycetes naeslundii 8115. The data set is classed as functional.
The subject of data set [9] is Actinomyces viscosus. Nature of the data set: In vitro antibacterial activity against Actinomycetes viscosus T14V. The data set is classed as functional.
Data set [10] concerns Actinomyces israelii. Nature of the data set: In vitro antibacterial activity against Actinomycetes israelii 12836. The format is functional.
In data set [11] the test system is Actinomyces israelii. The experiment in a line: In vitro antibacterial activity against Actinomycetes israelii 10048. The format is functional.

A word on the MIC: it is the smallest concentration in the dilution series that meets the test's criterion for growth inhibition. A lower MIC goes with greater potency. In the case of `CCCCCCCCCCCC(=O)c1ccc(O)c(C(=O)Nc2nc3ccccc3s2)c1`, the MIC against Actinomyces viscosus [1] is more than 20 µg/mL.
The logP is the decadic logarithm of the partition coefficient of the neutral form, usually between octanol and water. Broadly, the pKa is the pH at which an ionisable group is half protonated. Lower therefore signals a group that gives up its proton readily. One may read the logD as the decadic logarithm of the distribution of all forms, ionised or not, between an organic phase and buffer at a given pH. Low values mean a more hydrophilic compound, high ones a more lipophilic compound. On to `CCCCc1ccc(O)c(C(=O)Nc2ccc(Br)cc2)c1`, for which the “Log 1/MIC” value in data set [2] turned out to be 6.54. In data set [3] (octanol/buffer, read-out: logP), the logP was 6.09. In addition, the pKa in data set [4] was 7.35. The molecule also registered an MIC against Actinomyces viscosus [1] of 0.1 µg/mL (≈ 0.287 µM). In addition, the logD in [5] was determined as 5.88.
Consider `CCCCCCCCCC(=O)c1ccc(O)c(C(=O)Nc2ccc([N+](=O)[O-])cc2)c1`, for which the MIC turned out to be 0.5 µg/mL (≈ 1.21 µM) against Actinomyces naeslundii [6]; 0.05 µg/mL (≈ 0.121 µM) against Actinomyces israelii [7]; 0.05 µg/mL (≈ 0.121 µM) in the data set on Actinomyces naeslundii [8]; 0.05 µg/mL (≈ 0.121 µM) against Actinomyces viscosus [1]; 0.05 µg/mL (≈ 0.121 µM) in the data set with Actinomyces viscosus [9]; 0.05 µg/mL (≈ 0.121 µM) with Actinomyces israelii [10]. In the data set on Actinomyces israelii [11], the MIC stood at 0.05 µg/mL (≈ 0.121 µM).
For the molecule `O=C(Nc1nccs1)c1cc(Br)cc(Br)c1O`, the MIC against Actinomyces viscosus [1] was 95 µg/mL (≈ 251 µM).
`O=C(Nc1ccc([N+](=O)[O-])cc1)c1cc(Br)cc(Br)c1O` displayed an MIC against Actinomyces viscosus [1] of 0.5 µg/mL (≈ 1.2 µM).
On to `CCCc1ccc(O)c(C(=O)Nc2ccc(Br)cc2)c1`, for which the “Log 1/MIC” value in [2] is 5.35. Besides, the logP in data set [3] (octanol/buffer, read-out: logP) came out at 5.61. This molecule had a pKa in data set [4] of 7.35. In the data set with Actinomyces viscosus [1], this molecule returned an MIC of 1.5 µg/mL (≈ 4.49 µM). Also, in [5], the pH-dependent lipophilicity (logD) came to 5.38.
Regarding `O=C(Nc1nc2ccccc2s1)c1cc(Br)cc(Br)c1O`, it took 1.7 µg/mL (≈ 3.97 µM) to inhibit growth in the data set on Actinomyces viscosus [1] (MIC).
With `CCCCCCc1ccc(O)c(C(=O)NCc2ccc(Cl)c(Cl)c2)c1`, the MIC was determined as 0.5 µg/mL (≈ 1.31 µM) against Actinomyces naeslundii [6]; 1 µg/mL (≈ 2.63 µM) in the data set with Actinomyces israelii [7]; 0.5 µg/mL (≈ 1.31 µM) in the data set on Actinomyces naeslundii [8]; 0.5 µg/mL (≈ 1.31 µM) against Actinomyces viscosus [1]; 0.5 µg/mL (≈ 1.31 µM) against Actinomyces viscosus [9]; 1 µg/mL (≈ 2.63 µM) in the data set on Actinomyces israelii [10]. Further, in the data set with Actinomyces israelii [11], 0.5 µg/mL (≈ 1.31 µM) was the least that counted as inhibitory (MIC).
Regarding `CCCCCCc1ccc(O)c(C(=O)Nc2cccc(C(F)(F)F)c2)c1`, the MIC against Actinomyces naeslundii [6] is 0.05 µg/mL (≈ 0.137 µM); against Actinomyces israelii [7] it was more than 5 µg/mL; in the data set on Actinomyces naeslundii [8] it was 0.1 µg/mL (≈ 0.274 µM); in the data set with Actinomyces viscosus [1] it was 0.5 µg/mL (≈ 1.37 µM); with Actinomyces viscosus [9] it was 0.05 µg/mL (≈ 0.137 µM); in the data set on Actinomyces israelii [10], 0.5 µg/mL (≈ 1.37 µM). The molecule also gave an MIC against Actinomyces israelii [11] of 0.5 µg/mL (≈ 1.37 µM).
Consider `Cc1cc(C)nc(NC(=O)c2cc(Br)cc(Br)c2O)c1`, for which, in the data set on Actinomyces viscosus [1], the MIC was 25 µg/mL (≈ 62.5 µM).
The same measure, in the same setting: the same measure for `Cc1ccc(O)c(C(=O)NCCCCCCNC(=O)c2cc(C)ccc2O)c1`: more than 20 µg/mL; for `Cc1cc(C)nc(NC(=O)c2cc(Br)cc(Br)c2O)n1`: 200 µg/mL (≈ 499 µM).
Still for that read-out and setting: then `CCCCCCc1ccc(O)c(C(=O)NCc2cccc([N+](=O)[O-])c2)c1`, with 0.5 µg/mL (≈ 1.4 µM).
Take `Cc1cccnc1NC(=O)c1cc(Br)cc(Br)c1O`: the MIC against Actinomyces viscosus [1] is more than 155 µg/mL.
In the case of `CCCCCCCCCCCCCC(=O)c1ccc(O)c(C(=O)Nc2ccc(Br)cc2)c1`, the MIC against Actinomyces viscosus [1] was more than 5 µg/mL.
Same read-out and setting: then `CCCCCCc1ccc(O)c(C(=O)Nc2nc3ccccc3s2)c1`, with more than 20 µg/mL.
With `CCCCCCc1ccc(O)c(C(=O)Nc2ccc(Br)cc2)c1`, the MIC was 1 µg/mL (≈ 2.66 µM) in the data set with Actinomyces naeslundii [6]; 0.1 µg/mL (≈ 0.266 µM) against Actinomyces israelii [7]; 0.1 µg/mL (≈ 0.266 µM) against Actinomyces naeslundii [8]; 0.01 µg/mL (≈ 0.0266 µM) in the data set on Actinomyces viscosus [1]; 0.1 µg/mL (≈ 0.266 µM) against Actinomyces viscosus [9]; 0.5 µg/mL (≈ 1.33 µM) with Actinomyces israelii [10]. The MIC in the data set with Actinomyces israelii [11] is 0.1 µg/mL (≈ 0.266 µM). Moreover, the “Log 1/MIC” value in data set [2] is 7.58. Moreover, in data set [3] (octanol/buffer, read-out: logP), the logP was 7.11. In [4], this molecule showed a pKa of 7.35. The same molecule registered a logD in data set [5] of 6.88.
With `CCCCCCCCCCCC(=O)c1ccc(O)c(C(=O)Nc2ccc(Br)cc2)c1`, the MIC against Actinomyces naeslundii [6] is 0.5 µg/mL (≈ 1.05 µM); against Actinomyces israelii [7], 0.5 µg/mL (≈ 1.05 µM); against Actinomyces naeslundii [8], 1 µg/mL (≈ 2.11 µM); in the data set on Actinomyces viscosus [1] it was 0.02 µg/mL (≈ 0.0422 µM); against Actinomyces viscosus [9], 0.5 µg/mL (≈ 1.05 µM); against Actinomyces israelii [10], more than 5 µg/mL. This molecule had an MIC against Actinomyces israelii [11] of more than 5 µg/mL. For the same molecule, in [2], the “Log 1/MIC” value is 7.37. The same molecule registered a logP in data set [3] (octanol/water) of 9.02. The molecule further gave a pKa in [4] of 6.1. The same molecule displayed a log distribution coefficient (logD) in data set [5] of 7.88.
In the data set on Actinomyces viscosus [1], `COc1ccc(O)c(C(=O)Nc2ccc(Br)cc2)c1` returned an MIC of more than 25 µg/mL.
Regarding `O=C(NCC1CCCCC1)c1cc(Br)cc(Br)c1O`, inhibition of growth with Actinomyces viscosus [1] (MIC) required 12 µg/mL (≈ 30.7 µM).
On to `CCCCCCc1cc(C(=O)Nc2ccc(Br)cc2)c(O)c([N+](=O)[O-])c1`, for which, in [2], the “Log 1/MIC” value is reported as 6.02. Also, the logP in [3] (octanol/buffer, read-out: logP) is 7.56. In data set [4], this molecule showed a pKa of 5.6. Also, inhibition of growth in the data set with Actinomyces viscosus [1] (MIC) required 0.4 µg/mL (≈ 0.949 µM). For the same molecule, in data set [5], the logD amounted to 5.96.
On to `O=C(NCCCCCCNC(=O)c1ccccc1O)c1ccccc1O`, for which the MIC against Actinomyces viscosus [1] is more than 20 µg/mL.
Consider `CCCCCCCC(=O)c1ccc(O)c(C(=O)Nc2nc3ccccc3s2)c1`, for which the minimum inhibitory concentration (MIC) against Actinomyces viscosus [1] was 1 µg/mL (≈ 2.52 µM).
For the molecule `CCCCCCCC(=O)c1ccc(O)c(C(=O)Nc2ccc(Br)cc2)c1`, the “Log 1/MIC” value in [2] stood at 5.92. The lipophilicity (logP) in [3] (octanol/buffer, read-out: logP) was 7.02. Further, in data set [4], the pKa came out at 6.1. This molecule had an MIC with Actinomyces viscosus [1] of 0.5 µg/mL (≈ 1.2 µM). The logD in data set [5] worked out at 5.88.
For the molecule `Cc1ccc(O)c(C(=O)Nc2ccc(Br)cc2)c1`, in data set [2], the “Log 1/MIC” value turned out to be 5.09. Moreover, the lipophilicity (logP) in data set [3] (octanol/buffer, read-out: logP) stood at 4.61. Moreover, the pKa in data set [4] turned out to be 7.35. For the same molecule, the MIC with Actinomyces viscosus [1] is 2.5 µg/mL (≈ 8.17 µM); in the data set with Actinomyces viscosus [9] it was 5.2 µg/mL (≈ 17 µM). Further, the log distribution coefficient (logD) in data set [5] was 4.38.
As to `O=C(Nc1ccc(Br)cc1)c1cc(Br)ccc1O` [DIBROMSALAN], the “Log 1/MIC” value in data set [2] came out at 5.87. For the same molecule, the logP in data set [3] (octanol/buffer, read-out: logP) was 5.26. This molecule also yielded a pKa in data set [4] of 6.85. In addition, in the data set with Actinomyces viscosus [1], the MIC worked out at 0.5 µg/mL (≈ 1.35 µM). For the same molecule, in [5], the logD was 4.75.
Regarding `O=C(Nc1cccc(C(F)(F)F)c1)c1cc(Br)cc(Br)c1O` [FLUOROSALAN], the MIC is 1 µg/mL (≈ 2.28 µM) in the data set on Actinomyces naeslundii [6]; 0.1 µg/mL (≈ 0.228 µM) against Actinomyces israelii [7]; 0.5 µg/mL (≈ 1.14 µM) in the data set on Actinomyces naeslundii [8]; 1 µg/mL (≈ 2.28 µM) in the data set with Actinomyces viscosus [1]; 0.5 µg/mL (≈ 1.14 µM) with Actinomyces viscosus [9]; 0.5 µg/mL (≈ 1.14 µM) against Actinomyces israelii [10]. Moreover, the MIC with Actinomyces israelii [11] came out at 0.5 µg/mL (≈ 1.14 µM).
